Assay results from PubChem BioAssay AID1963978 (Molecular Pharmacology Branch, DTP, NCI, 2024).

Tested on: 616215-338-R-J1-PDC spheroids with HUVEC/MSC, viability
Assay: Anticancer human tumor 616215-338-R-J1-PDC patient-derived colon adenocarcinoma cell line growth inhibition [PI3K]
Conditions: for IC50: curve of first compound; for viability, T/C: stronger effect = lower value
Procedure, shortened: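 High-throughput combination screen: PI3K inhibitors crossed with targeted small molecules on complex spheroids of tumor cells, HUVEC and MSCs at 37 degrees C, 5% CO2. Top concentration was at or near clinical Cmax (otherwise 10 microM), with half-log decrements.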

[1] = second compound 0.00316 µM, first compound 0.0316 µM
[2] = second compound 0.00316 µM, first compound 0.1 µM
[3] = second compound 0.00316 µM, first compound 0.316 µM
[4] = second compound 0.00316 µM, first compound 1 µM
[5] = second compound 0.00316 µM, first compound 3.16 µM
[6] = second compound 0.00316 µM, first compound 10 µM
[7] = second compound 0.01 µM, first compound 0.0316 µM
[8] = second compound 0.01 µM, first compound 0.1 µM
[9] = second compound 0.01 µM, first compound 0.316 µM
[10] = second compound 0.01 µM, first compound 1 µM
[11] = second compound 0.01 µM, first compound 3.16 µM
[12] = second compound 0.01 µM, first compound 10 µM
[13] = second compound 0.0316 µM, first compound 0.0316 µM
[14] = second compound 0.0316 µM, first compound 0.1 µM
[15] = second compound 0.0316 µM, first compound 0.316 µM
[16] = second compound 0.0316 µM, first compound 1 µM
[17] = second compound 0.0316 µM, first compound 3.16 µM
[18] = second compound 0.0316 µM, first compound 10 µM
[19] = second compound 0.1 µM, first compound 0.0316 µM
[20] = second compound 0.1 µM, first compound 0.1 µM
[21] = second compound 0.1 µM, first compound 0.316 µM
[22] = second compound 0.1 µM, first compound 1 µM
[23] = second compound 0.1 µM, first compound 3.16 µM
[24] = second compound 0.1 µM, first compound 10 µM
[25] = second compound 0.316 µM, first compound 0.0316 µM
[26] = second compound 0.316 µM, first compound 0.1 µM
[27] = second compound 0.316 µM, first compound 0.316 µM
[28] = second compound 0.316 µM, first compound 1 µM
[29] = second compound 0.316 µM, first compound 3.16 µM
[30] = second compound 0.316 µM, first compound 10 µM
[31] = second compound 1 µM, first compound 0.0316 µM
[32] = second compound 1 µM, first compound 0.1 µM
[33] = second compound 1 µM, first compound 0.316 µM
[34] = second compound 1 µM, first compound 1 µM
[35] = second compound 1 µM, first compound 3.16 µM
[36] = second compound 1 µM, first compound 10 µM
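Further: spheroids exposed to agents for seven days before the viability read.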

`CC1(C)CCC(Nc2ncc(C(F)(F)F)c(-c3c[nH]c4c(P(C)(C)=O)c(C#N)ccc34)n2)CN1` (stereo unspecified) + CC(Nc1ccc2c(c1)OCCn1cc(N3C(=O)OCC3C(F)F)nc1-2)C(N)=O gave an IC50 (second compound 0.00316 µM) of 3.62 µM, an IC50 (second compound 0.01 µM) of 3.73 µM and an IC50 (second compound 0.0316 µM) of 3.54 µM. It also gave an IC50 (second compound 0.1 µM) of 3.84 µM, an IC50 (second compound 0.316 µM) of 1.63 µM and an IC50 (second compound 1 µM) of 1.39 µM. The viability, T/C [1] was 50.4%, the viability, T/C [2] was 55.4% and the viability, T/C [3] was 56.4%. It also gave a viability, T/C [4] of 61.7%, a viability, T/C [5] of 59.1% and a viability, T/C [6] of 0.47%. For the same compound, the viability, T/C [7] was 53.6%, the viability, T/C [8] was 54.3% and the viability, T/C [9] was 58%. The viability, T/C [10] was 64.8%, the viability, T/C [11] was 61% and the viability, T/C [12] was 0.42%. The viability, T/C [13] was 58%, the viability, T/C [14] was 49.4% and the viability, T/C [15] was 71.4%. The viability, T/C [16] was 52.2%, the viability, T/C [17] was 55.4% and the viability, T/C [18] was 2.25%. The viability, T/C [19] was 66.7%, the viability, T/C [20] was 59.5% and the viability, T/C [21] was 53.2%. The viability, T/C [22] was 59.4%, the viability, T/C [23] was 60.4% and the viability, T/C [24] was 2.28%. The viability, T/C [25] was 49.8%, the viability, T/C [26] was 45.8% and the viability, T/C [27] was 59.5%. For the same compound, the viability, T/C [28] was 71.9%, the viability, T/C [29] was 41% and the viability, T/C [30] was 0.25%. It also gave a viability, T/C [31] of 49.6%, a viability, T/C [32] of 54.3% and a viability, T/C [33] of 64.7%. For the same compound, the viability, T/C [34] was 62.2%, the viability, T/C [35] was 30.8% and the viability, T/C [36] was 1.17%.
For `Cn1ncc(Cl)c1-c1cc(C(=O)NC(CN)Cc2cccc(F)c2)sc1Cl` (stereo unspecified) + CC(Nc1ccc2c(c1)OCCn1cc(N3C(=O)OCC3C(F)F)nc1-2)C(N)=O, the IC50 (second compound 0.00316 µM) was 6.62 µM, the IC50 (second compound 0.01 µM) was 5.81 µM and the IC50 (second compound 0.0316 µM) was 5.89 µM. For the same compound, the IC50 (second compound 0.1 µM) was 5.78 µM, the IC50 (second compound 0.316 µM) was 6.34 µM and the IC50 (second compound 1 µM) was 5.53 µM. It also gave a viability, T/C [1] of 101%, a viability, T/C [2] of 82.3% and a viability, T/C [3] of 96.3%. For the same compound, the viability, T/C [4] was 92.7%, the viability, T/C [5] was 78.6% and the viability, T/C [6] was 33.6%. For the same compound, the viability, T/C [7] was 87.6%, the viability, T/C [8] was 96% and the viability, T/C [9] was 115%. For the same compound, the viability, T/C [10] was 104%, the viability, T/C [11] was 68.3% and the viability, T/C [12] was 33.6%. For the same compound, the viability, T/C [13] was 104%, the viability, T/C [14] was 92.2% and the viability, T/C [15] was 91.9%. The viability, T/C [16] was 88.8%, the viability, T/C [17] was 73.7% and the viability, T/C [18] was 30.3%. For the same compound, the viability, T/C [19] was 90.2%, the viability, T/C [20] was 108% and the viability, T/C [21] was 95.1%. For the same compound, the viability, T/C [22] was 83.7%, the viability, T/C [23] was 73.4% and the viability, T/C [24] was 30%. The viability, T/C [25] was 90.1%, the viability, T/C [26] was 110% and the viability, T/C [27] was 97%. It also gave a viability, T/C [28] of 88.3%, a viability, T/C [29] of 71.6% and a viability, T/C [30] of 36.1%. The viability, T/C [31] was 100%, the viability, T/C [32] was 101% and the viability, T/C [33] was 93.9%. For the same compound, the viability, T/C [34] was 81.1%, the viability, T/C [35] was 74.6% and the viability, T/C [36] was 27.9%.
With `Cn1nccc1Nc1nccc(-c2ccn(C(CO)c3ccc(Cl)c(F)c3)c(=O)c2)n1` (stereo unspecified) + CC(Nc1ccc2c(c1)OCCn1cc(N3C(=O)OCC3C(F)F)nc1-2)C(N)=O the IC50 (second compound 0.00316 µM) was 4.61 µM, the IC50 (second compound 0.01 µM) was 3.92 µM and the IC50 (second compound 0.0316 µM) was 2.32 µM. For the same compound, the IC50 (second compound 0.1 µM) was 1.15 µM, the IC50 (second compound 0.316 µM) was 0.986 µM and the IC50 (second compound 1 µM) was 1.24 µM. The viability, T/C [1] was 94.1%, the viability, T/C [2] was 87% and the viability, T/C [3] was 74.5%. For the same compound, the viability, T/C [4] was 71.3%, the viability, T/C [5] was 53.8% and the viability, T/C [6] was 40.1%. It also gave a viability, T/C [7] of 100%, a viability, T/C [8] of 97.6% and a viability, T/C [9] of 81.8%. For the same compound, the viability, T/C [10] was 71.1%, the viability, T/C [11] was 50.7% and the viability, T/C [12] was 41%. The viability, T/C [13] was 86.8%, the viability, T/C [14] was 103% and the viability, T/C [15] was 87.7%. It also gave a viability, T/C [16] of 58.3%, a viability, T/C [17] of 54.2% and a viability, T/C [18] of 38.4%. For the same compound, the viability, T/C [19] was 96.8%, the viability, T/C [20] was 91.6% and the viability, T/C [21] was 78.1%. For the same compound, the viability, T/C [22] was 50.8%, the viability, T/C [23] was 38.8% and the viability, T/C [24] was 33%. The viability, T/C [25] was 92.5%, the viability, T/C [26] was 100% and the viability, T/C [27] was 66.8%. The viability, T/C [28] was 52.6%, the viability, T/C [29] was 37.4% and the viability, T/C [30] was 29.1%. The viability, T/C [31] was 96.8%, the viability, T/C [32] was 93.7% and the viability, T/C [33] was 72.5%. The viability, T/C [34] was 44.9%, the viability, T/C [35] was 40.5% and the viability, T/C [36] was 6.88%.
